From US3966715A, “Herbicidal agents” (Bayer Aktiengesellschaft, priority 1966, dated 1976)

Assays:
Format in all cases: in vivo
Oats [1] = assay: Post-emergence test, oats; conditions: three weeks
Experimental: (§1) Solvent: 5 parts by weight acetone
(§2) 1 part by weight benzyloxypolyglycol ether
(§3) To produce a suitable preparation of the particular active compound, 1 part by weight of such active compound is mixed with the stated amount of solvent, the stated amount of emulsifier is then added and the resulting concentrate is thereafter diluted with water to the desired final concentration.
(§4) Test plants which have a height of about 5--15 cm. are sprayed with the preparation of the given active compound until just dew moist. After three weeks, the degree of damage to the plants is determined and characterized by the values 0-5, which have the following meaning:
(§5) The procedure of Example 2 is repeated, and the particular active compounds tested, and amounts applied, and the results obtained can be seen from the following Table 2E: […]

Chenopodium [2] = assay: Pre-emergence test, Chenopodium; conditions: three weeks
Experimental: as §1, §2, §3
(§6) Seeds of the test plants are sown in normal soil and, after 24 hours, watered with the preparation of the given active compound. It is expedient to keep constant the amount of water per unit area. The concentration of the particular active compound in the preparation is of no importance, only the amount of active compound applied per unit area being decisive. After three weeks, the degree of damage to the test plants is determined and characterized by the values 0-5, which have the following meaning:
(§7) The procedure of Example 1 is repeated, and the particular active compounds tested, the amounts applied, and the results obtained can be seen from the following Table 1D: […]

Cotton [3] = assay: Pre-emergence test, cotton; conditions: three weeks
Experimental: as §1, §2, §3, §6, §7

Oats [4] = assay: Pre-emergence test, oats; conditions: three weeks
Experimental: as §1, §2, §3, §6, §7

Cotton [5] = assay: Post-emergence test, cotton; conditions: three weeks
Experimental: as §1, §2, §3, §4, §5

Galinsoga = assay: Post-emergence test, Galinsoga; conditions: three weeks
Experimental: as §1, §2, §3, §4, §5

Echinochloa [6] = assay: Pre-emergence test, Echinochloa; conditions: three weeks
Experimental: as §1, §2, §3, §6, §7

Wheat [7] = assay: Pre-emergence test, wheat; conditions: three weeks
Experimental: as §1, §2, §3, §6, §7

Wheat [8] = assay: Post-emergence test, wheat; conditions: three weeks
Experimental: as §1, §2, §3, §4, §5

Sinapis [9] = assay: Post-emergence test, Sinapis; conditions: three weeks
Experimental: as §1, §2, §3, §4, §5

Sinapis [10] = assay: Pre-emergence test, Sinapis; conditions: three weeks
Experimental: as §1, §2, §3, §6, §7

test plants [11] = assay: Pre-emergence test, overall; conditions: Example 1
Experimental: as §1, §2, §3, §6, §7

test plants [12] = assay: Post-emergence test, overall; conditions: Example 2
Experimental: as §1, §2, §3, §4, §5

Chenopodium [13] = assay: Post-emergence test, Chenopodium; conditions: three weeks
Experimental: as §1, §2, §3, §4, §5

Echinochloa [14] = assay: Post-emergence test, Echinochloa; conditions: three weeks
Experimental: as §1, §2, §3, §4, §5

Stellaria = assay: Post-emergence test, Stellaria; conditions: three weeks
Experimental: as §1, §2, §3, §4, §5

plants and weeds = assay: General herbicidal activity; conditions: compared with compound 221

CSc1nnc(C(C)C)c(=O)n1N=Cc1cccc([N+](=O)[O-])c1 [Compound 209, 3-methylthio-4-(3'-nitro-benzylidene-amino)-6-isopropyl-1,2,4-triazine-5-one]
degree of damage, Oats (Oats [1]; 2.4 Kg/hectare): 4-5 | degree of damage, Chenopodium (Chenopodium [2]; 1.25 kg/hectare): 4-5 | degree of damage, Chenopodium (Chenopodium [2]; 2.5 kg/hectare): 4-5 | degree of damage, Cotton (Cotton [3]; 1.25 kg/hectare): 4-5 | degree of damage, Cotton (Cotton [3]; 2.5 kg/hectare): 4-5 | degree of damage, Cotton (Cotton [3]; 5 kg/hectare): 4-5 | degree of damage, Oats (Oats [4]; 2.5 kg/hectare): 4-5 | degree of damage, Oats (Oats [4]; 5 kg/hectare): 4-5

Nn1c(NCc2ccccc2)nnc(-c2ccccc2)c1=O [Compound 102a, 3-benzylamino-4-amino-6-phenyl-1,2,4-triazine-5-one]
degree of damage, Cotton (Cotton [5]; 10 Kg/hectare): 2-3

CCNc1nc(Cl)nc(NCC)n1 [A, 2,6-di-(ethylamino)-4-chloro-1,3,5-triazine, reference compound]
degree of damage, Galinsoga (Galinsoga; 0.1 % active compound): 4-5 | degree of damage, Echinochloa (Echinochloa [6]; 5 kg/hectare): 3-4

COc1ccc(C=Nn2c(SC)nnc(C(C)C)c2=O)cc1 [Compound 207, 3-methylthio-4-(4'-methoxy-benzylidene-amino)-6-isopropyl-1,2,4-triazine-5-one]
degree of damage, Cotton (Cotton [5]; 0.6 Kg/hectare): 4-5 | degree of damage, Wheat (Wheat [7]; 5 kg/hectare): 4-5 | degree of damage, Wheat (Wheat [8]; 1.2 Kg/hectare): 3-4 | degree of damage, Wheat (Wheat [8]; 2.4 Kg/hectare): 3-4 | degree of damage, Oats (Oats [1]; 2.4 Kg/hectare): 4-5 | degree of damage, Cotton (Cotton [3]; 5 kg/hectare): 4-5 | degree of damage, Oats (Oats [4]; 5 kg/hectare): 4-5

CSc1nnc(C(C)C)c(=O)n1NC(O)C(Cl)(Cl)Cl (stereo not drawn) [Compound 191, 3-methylthio-4-(β-trichloro-α-hydroxy-ethyl)-amino-6-isopropyl-1,2,4-triazine-5-one]
degree of damage, Sinapis (Sinapis [9]; 1.2 Kg/hectare): 4-5

CCNc1nnc(C(C)C)c(=O)n1N [Compound 177, 3-ethylamino-4-amino-6-isopropyl-1,2,4-triazine-5-one]
degree of damage, Sinapis (Sinapis [10]; 5 kg/hectare): 4-5 | degree of damage, Wheat (Wheat [8]; 2.4 Kg/hectare): 4-5 | degree of damage, Oats (Oats [1]; 2.4 Kg/hectare): 4-5 | degree of damage, Galinsoga (Galinsoga; 2.4 Kg/hectare): 4-5 | degree of damage, Oats (Oats [4]; 2.5 kg/hectare): 4-5

CCSc1nnc(-c2ccccc2)c(=O)n1N [Compound 3, 3-ethylthio-4-amino-6-phenyl-1,2,4-triazine-5-one]
kind of herbicidal action (test plants [11]): selectively herbicidal action in wheat and cotton

C=CCNc1nnc(-c2ccccc2)c(=O)n1N [Compound 26, 3-allylamino-4-amino-6-phenyl-1,2,4-triazine-5-one]
kind of herbicidal action (test plants [12]): pronouncedly selective-herbicidal action in wheat and carrots | degree of damage, Echinochloa (Echinochloa [6]; 5 kg/hectare): 4-5 | degree of damage, Chenopodium (Chenopodium [13]; 0.6 Kg/hectare): 4-5

CNc1nnc(C(C)(C)C)c(=O)n1N=Cc1ccc(Cl)cc1 [Compound 233, 3-methylamino-4-(4'-chloro-benzylidene-amino)-6-tert.-butyl-1,2,4-triazine-5-one]
degree of damage, Cotton (Cotton [5]; 2.4 Kg/hectare): 4-5 | degree of damage, Wheat (Wheat [8]; 0.6 Kg/hectare): 4-5 | degree of damage, Wheat (Wheat [8]; 1.2 Kg/hectare): 4-5 | degree of damage, Oats (Oats [1]; 1.2 Kg/hectare): 4-5 | degree of damage, Oats (Oats [1]; 2.4 Kg/hectare): 4-5 | degree of damage, Echinochloa (Echinochloa [6]; 5 kg/hectare): 4-5

CNc1nnc(C(C)(C)C)c(=O)n1N=Cc1ccccc1 [Compound 230, 3-methylamino-4-(benzylidene-amino)-6-tert.-butyl-1,2,4-triazine-5-one]
degree of damage, Sinapis (Sinapis [10]; 2.5 kg/hectare): 4-5 | degree of damage, Wheat (Wheat [7]; 5 kg/hectare): 4-5 | degree of damage, Oats (Oats [1]; 2.4 Kg/hectare): 4-5 | degree of damage, Echinochloa (Echinochloa [14]; 1.2 Kg/hectare): 4-5 | degree of damage, Echinochloa (Echinochloa [14]; 2.4 Kg/hectare): 4-5 | degree of damage, Chenopodium (Chenopodium [2]; 2.5 kg/hectare): 4-5 | degree of damage, Stellaria (Stellaria; 0.6 Kg/hectare): 4-5 | degree of damage, Echinochloa (Echinochloa [6]; 2.5 kg/hectare): 4-5 | degree of damage, Echinochloa (Echinochloa [6]; 5 kg/hectare): 4-5 | degree of damage, Cotton (Cotton [3]; 5 kg/hectare): 4-5 | degree of damage, Oats (Oats [4]; 5 kg/hectare): 4-5

C=CCNc1nnc(C(C)C)c(=O)n1N [Compound 179, 3-(α-allylamino)-4-amino-6-isopropyl-1,2,4-triazine-5-one]
degree of damage, Stellaria (Stellaria; 1.2 Kg/hectare): 4-5 | degree of damage, Chenopodium (Chenopodium [13]; 0.6 Kg/hectare): 4-5

CSc1nnc(C2CCCCC2)c(=O)n1NC(O)C(Cl)(Cl)Cl (stereo not drawn) [Compound 193, 3-methylthio-4-(β-trichloro-α-hydroxy-ethyl)-amino-6-cyclohexyl-1,2,4-triazine-5-one]
degree of damage, Wheat (Wheat [7]; 5 kg/hectare): 4-5 | degree of damage, Wheat (Wheat [8]; 2.4 Kg/hectare): 4-5 | degree of damage, Oats (Oats [1]; 1.2 Kg/hectare): 4-5 | degree of damage, Chenopodium (Chenopodium [2]; 2.5 kg/hectare): 4-5 | degree of damage, Oats (Oats [4]; 2.5 kg/hectare): 4-5

CSc1nnc(C(C)(C)C)c(=O)n1N=Cc1ccco1 [Compound 222, 3-methylthio-4-(furfur-2'-ylidene-amino)-6-tert.-butyl-1,2,4-triazine-5-one]
degree of damage, Sinapis (Sinapis [10]; 1.25 kg/hectare): 4-5 | degree of damage, Wheat (Wheat [7]; 5 kg/hectare): 4-5 | degree of damage, Wheat (Wheat [8]; 2.4 Kg/hectare): 4-5 | usefulness as herbicide (plants and weeds): similarly useful | degree of damage, Stellaria (Stellaria; 0.6 Kg/hectare): 4-5 | degree of damage, Cotton (Cotton [3]; 1.25 kg/hectare): 4-5 | degree of damage, Oats (Oats [4]; 1.25 kg/hectare): 4-5

CSc1nnc(C2CCCCC2)c(=O)n1N=C1CCCCC1 [Compound 227, 3-methylthio-4-(cyclohexylidene-amino)-6-cyclohexyl-1,2,4-triazine-5-one]
degree of damage, Sinapis (Sinapis [10]; 1.25 kg/hectare): 4-5 | degree of damage, Wheat (Wheat [7]; 2.5 kg/hectare): 4-5 | degree of damage, Wheat (Wheat [7]; 5 kg/hectare): 4-5 | degree of damage, Wheat (Wheat [8]; 2.4 Kg/hectare): 4-5 | degree of damage, Stellaria (Stellaria; 2.4 Kg/hectare): 4-5 | degree of damage, Echinochloa (Echinochloa [6]; 1.25 kg/hectare): 4-5 | degree of damage, Chenopodium (Chenopodium [13]; 2.4 Kg/hectare): 4-5

CSc1nnc(C(C)C)c(=O)n1N [Compound 21, 3-methylthio-4-amino-6-isopropyl-1,2,4-triazine-5-one]
degree of damage, Wheat (Wheat [8]; 0.01 % active compound): 4-5 | kind of herbicidal action (test plants [12]): pronouncedly total-herbicidal action

CSc1nnc(C(C)C)c(=O)n1N=CC(C)C [Compound 214, 3-methylthio-4-(isobutylidene-amino)-6-isopropyl-1,2,4-triazine-5-one]
degree of damage, Cotton (Cotton [5]; 0.6 Kg/hectare): 4-5 | degree of damage, Cotton (Cotton [5]; 1.2 Kg/hectare): 4-5 | degree of damage, Wheat (Wheat [7]; 2.5 kg/hectare): 4-5 | degree of damage, Oats (Oats [1]; 0.6 Kg/hectare): 4-5

CSc1nnc(C2CCCCO2)c(=O)n1N (stereo not drawn) [Compound 163, 3-methylthio-4-amino-6-(tetrahydropyran-2'-yl)-1,2,4-triazine-5-one]
degree of damage, Wheat (Wheat [8]; 0.6 Kg/hectare): 3-4 | degree of damage, Wheat (Wheat [8]; 1.2 Kg/hectare): 4-5 | degree of damage, Echinochloa (Echinochloa [14]; 2.4 Kg/hectare): 4-5 | degree of damage, Chenopodium (Chenopodium [13]; 0.6 Kg/hectare): 4-5

CSc1nnc(C(C)C)c(=O)n1N=C1CCCC1 [Compound 223, 3-methylthio-4-(cyclopentylidene-amino)-6-isopropyl-1,2,4-triazine-5-one]
degree of damage, Sinapis (Sinapis [10]; 1.25 kg/hectare): 4-5 | degree of damage, Cotton (Cotton [5]; 1.2 Kg/hectare): 4-5 | degree of damage, Wheat (Wheat [7]; 2.5 kg/hectare): 4-5 | degree of damage, Wheat (Wheat [7]; 5 kg/hectare): 4-5 | usefulness as herbicide (plants and weeds): similarly useful | degree of damage, Echinochloa (Echinochloa [14]; 1.2 Kg/hectare): 4-5 | degree of damage, Chenopodium (Chenopodium [13]; 1.2 Kg/hectare): 4-5 | degree of damage, Cotton (Cotton [3]; 2.5 kg/hectare): 4-5 | degree of damage, Cotton (Cotton [3]; 5 kg/hectare): 4-5 | degree of damage, Oats (Oats [4]; 1.25 kg/hectare): 4-5

CSc1nnc(-c2ccccc2)c(=O)n1N=Cc1ccccn1 [Compound 28, 3-methylthio-4-(pyrid-2'-yl-methylidene-amino)-6-phenyl-1,2,4-triazine-5-one]
kind of herbicidal action (test plants [12]): pronouncedly selective-herbicidal action in snap beans and wheat

Nn1c(N2CCCCC2)nnc(-c2ccccc2)c1=O [Compound 25, 3-piperidino-4-amino-6-phenyl-1,2,4-triazine-5-one]
degree of damage, Sinapis (Sinapis [9]; 10 Kg/hectare): 4-5 | degree of damage, Chenopodium (Chenopodium [13]; 10 Kg/hectare): 3-4

CSc1nnc(C(C)C)c(=O)n1N=C(C)C [Compound 194, 3-methylthio-4-(prop-2'-ylidene-amino)-6-isopropyl-1,2,4-triazine-5-one]
degree of damage, Cotton (Cotton [5]; 0.6 Kg/hectare): 4-5 | degree of damage, Wheat (Wheat [7]; 1.25 kg/hectare): 4-5 | degree of damage, Wheat (Wheat [8]; 1.2 Kg/hectare): 4-5 | degree of damage, Wheat (Wheat [8]; 2.4 Kg/hectare): 4-5 | degree of damage, Cotton (Cotton [3]; 1.25 kg/hectare): 4-5

CSc1nnc(C2CCCCC2)c(=O)n1N [Compound 2, 3-methylthio-4-amino-6-cyclohexyl-1,2,4-triazine-5-one]
degree of damage, Wheat (Wheat [7]; 1.25 kg/hectare): 4-5 | kind of herbicidal action (test plants [11]): pronouncedly total-herbicidal action | degree of damage, Oats (Oats [4]; 1.25 kg/hectare): 4-5

CSc1nnc(C2CCCCC2)c(=O)n1N=Cc1ccco1 [Compound 226, 3-methylthio-4-(furfur-2'-ylidene-amino)-6-cyclohexyl-1,2,4-triazine-5-one]
degree of damage, Cotton (Cotton [5]; 2.4 Kg/hectare): 4-5 | degree of damage, Oats (Oats [1]; 2.4 Kg/hectare): 4-5 | degree of damage, Echinochloa (Echinochloa [6]; 2.5 kg/hectare): 4-5 | degree of damage, Cotton (Cotton [3]; 5 kg/hectare): 3-4 | degree of damage, Oats (Oats [4]; 5 kg/hectare): 4-5

CCCCNc1nnc(-c2ccccc2)c(=O)n1N [Compound 100a, 3-n-butylamino-4-amino-6-phenyl-1,2,4-triazine-5-one]
degree of damage, Cotton (Cotton [5]; 10 Kg/hectare): 2-3 | degree of damage, Wheat (Wheat [8]; 10 Kg/hectare): 2-3 | degree of damage, Echinochloa (Echinochloa [14]; 10 Kg/hectare): 2-3
